Patent publication US20060069132A1, “Azolecarboxamide herbicides” (priority 2004, published 2006)

Experiments:
[1] = tested on: smallflower umbrella sedge; test: Test C flooded paddy test; format: in vivo, Cyperus difformis; settings: for Plant response rating, Sedge, Umbrella: 500 g ai/ha, visual rating after 12 to 14 days
soybean = test: Test C pre-/postemergence herbicide test; format: in vivo, Glycine max; settings: preemergence; for Plant response rating (0 = no effect, 100 = complete control), Soybean: 125 g ai/ha
Procedure, shortened: (§1)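 Visual injury scores run from 0 (no effect) to 100 (complete control), assessed relative to untreated controls 12 to 14 days after treatment in the greenhouse. Chemicals were formulated in a non-phytotoxic solvent mixture with surfactant and applied to soil after planting or to emerged plants at the 1- to 4-leaf stage.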

cocklebur = test: Test C pre-/postemergence herbicide test; format: in vivo, Xanthium strumarium; settings: for Plant response rating, Cocklebur / Plant response rating (0 = no effect, 100 = complete control), Cocklebur: preemergence
Procedure, shortened: as §1

goosegrass = test: Test C pre-/postemergence herbicide test; format: in vivo, Eleusine indica; settings: preemergence
Procedure, shortened: as §1

johnsongrass = test: Test C pre-/postemergence herbicide test; format: in vivo, Sorghum halepense; settings: preemergence
Procedure, shortened: as §1

velvetleaf = test: Test C pre-/postemergence herbicide test; format: in vivo, Abutilon theophrasti; settings: preemergence; for Plant response rating (0 = no effect, 100 = complete control), Velvetleaf: 125 g ai/ha
Procedure, shortened: as §1

rice = test: Test C flooded paddy test; format: in vivo, Oryza sativa; settings: for Plant response rating, Rice: 500 g ai/ha, visual rating after 12 to 14 days
Procedure, shortened: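 Plants were grown to the 1- to 4-leaf stage (2–18 cm) and then treated postemergence, or grown to the 2-leaf stage for the flooded paddy test. They were held in a greenhouse for 12 to 14 days and then scored by eye against controls, where 0 is no effect and 100 is complete control.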

corn = test: Test C pre-/postemergence herbicide test; format: in vivo, Zea mays; settings: preemergence
Procedure, shortened: as §1

bermudagrass = test: Test C pre-/postemergence herbicide test; format: in vivo, Cynodon dactylon; settings: for Plant response rating, Bermudagrass / Plant response rating (0 = no effect, 100 = complete control), Bermudagrass: preemergence
Procedure, shortened: as §1

ducksalad = test: Test C flooded paddy test; format: in vivo, Heteranthera limosa; settings: for Plant response rating, Ducksalad: 500 g ai/ha, visual rating after 12 to 14 days
[2] = 125 g ai/ha, scale 0 to 100 (0 no effect, 100 complete control)
[3] = 250 g ai/ha, scale of 0 to 100, 0 is no effect, 100 is complete control
[4] = scale 0 to 100 (0 no effect, 100 complete control)
[5] = 500 g ai/ha, scale 0 to 100 (0 no effect, 100 complete control), visual, 12 to 14 days
[6] = 62 g ai/ha, scale 0 to 100, 0 no effect, 100 complete control
[7] = 62 g ai/ha, scale 0 to 100 (0 no effect, 100 complete control)
[8] = 125 g ai/ha, scale 0 (no effect) to 100 (complete control), visual, 12 to 14 days
[9] = Preemergence, 500 g ai/ha, scale 0 to 100, 0 no effect, 100 complete control

Structure (SMILES) | Sedge, Umbrella plant response rating [1, 2] | Sedge, Umbrella plant response rating [1, 3] | Plant response rating, Sedge, Umbrella [1, 4] | Plant response rating, Soybean (soybean; 62 g ai/ha, scale 0 to 100) | Plant response rating, Soybean (soybean; 250 g ai/ha, scale 0-100) | Plant response rating, Soybean (soybean; [5]) | Plant response rating, Cocklebur (cocklebur; 62 g ai/ha, scale 0 to 100) | Plant response rating, Cocklebur (cocklebur; 250 g ai/ha, scale 0-100) | Plant response rating, Goosegrass (goosegrass; 62 g ai/ha, scale 0 to 100) | Plant response rating, Goosegrass (goosegrass; 250 g ai/ha, scale 0-100) | Plant response rating, Goosegrass (goosegrass; [5]) | Plant response rating, Johnsongrass (johnsongrass; 62 g ai/ha, scale 0 to 100) | Plant response rating, Johnsongrass (johnsongrass; 250 g ai/ha, scale 0-100) | Plant response rating, Johnsongrass (johnsongrass; [5]) | Plant response rating, Velvetleaf (velvetleaf; 62 g ai/ha, scale 0 to 100) | Plant response rating, Velvetleaf (velvetleaf; [5]) | Rice plant response rating (rice; [2]) | Rice plant response rating (rice; [3]) | Plant response rating, Rice (rice; [4]) | Plant response rating, Corn (corn; 62 g ai/ha, scale 0 to 100) | further results
CCC1=NN(C(C)(C)C)CC1C(=O)Nc1cc(C(=O)N(C)CC)ccc1F (racemic) [Compound 342] | 50 | 70 | 80 | 10 | 100 | 100 | 10 | 60 | 60 | 65 | 90 | 55 | 100 | 100 | 50 | 100 | 30 | 60 | 80 | 10 | Sedge, Umbrella plant response rating ([1]; 62 g ai/ha, scale 0 to 100): 40; Plant response rating (0 = no effect, 100 = complete control), Soybean (soybean): 60; Plant response rating (0 = no effect, 100 = complete control), Cocklebur (cocklebur; 125 g ai/ha): 30; Plant response rating, Cocklebur (cocklebur; [5]): 100; Plant response rating (0 = no effect, 100 = complete control), Goosegrass (goosegrass; 125 g ai/ha): 65; Plant response rating (0 = no effect, 100 = complete control), Johnsongrass (johnsongrass; 125 g ai/ha): 100; Plant response rating (0 = no effect, 100 = complete control), Velvetleaf (velvetleaf): 60; Plant response rating, Velvetleaf (velvetleaf; 250 g ai/ha, scale 0-100): 100; Rice plant response rating (rice; 62 g ai/ha, scale 0 to 100): 20; Plant response rating (0 = no effect, 100 = complete control), Corn (corn; 125 g ai/ha): 50; Plant response rating, Corn (corn; 250 g ai/ha, scale 0-100): 70; Plant response rating, Corn (corn; [5]): 90; Plant response rating, Bermudagrass (bermudagrass; [6]): 45; Plant response rating (0 = no effect, 100 = complete control), Bermudagrass (bermudagrass; 125 g ai/ha): 60; Plant response rating, Bermudagrass (bermudagrass; 250 g ai/ha, scale 0-100): 90; Plant response rating, Bermudagrass (bermudagrass; [5]): 90; Ducksalad plant response rating (ducksalad; 62 g ai/ha, scale 0 to 100): 50; Ducksalad plant response rating (ducksalad; [2]): 50; Ducksalad plant response rating (ducksalad; [3]): 80; Plant response rating, Ducksalad (ducksalad; [4]): 80
CCNC(=O)c1cccc(NC(=O)c2nn(C(C)(C)CC)nc2CC)c1 [Compound 376] | 85 | 85 | 85 | 0 | 10 | 10 | 0 | 0 | 80 | 100 | 100 | 60 | 100 | 100 | 0 | 50 | 75 | 75 | 80 | 20 | Sedge, Umbrella plant response rating ([1]; 62 g ai/ha, scale 0 to 100): 80; Plant response rating (0 = no effect, 100 = complete control), Soybean (soybean): 10; Plant response rating (0 = no effect, 100 = complete control), Cocklebur (cocklebur; 125 g ai/ha): 0; Plant response rating, Cocklebur (cocklebur; [5]): 5; Plant response rating (0 = no effect, 100 = complete control), Goosegrass (goosegrass; 125 g ai/ha): 100; Plant response rating (0 = no effect, 100 = complete control), Johnsongrass (johnsongrass; 125 g ai/ha): 80; Plant response rating (0 = no effect, 100 = complete control), Velvetleaf (velvetleaf): 5; Rice plant response rating (rice; 62 g ai/ha, scale 0 to 100): 70; Plant response rating (0 = no effect, 100 = complete control), Corn (corn; 125 g ai/ha): 40; Plant response rating, Corn (corn; 250 g ai/ha, scale 0-100): 45; Plant response rating, Corn (corn; [5]): 50; Plant response rating, Bermudagrass (bermudagrass; [6]): 80; Plant response rating (0 = no effect, 100 = complete control), Bermudagrass (bermudagrass; 125 g ai/ha): 90; Plant response rating, Bermudagrass (bermudagrass; 250 g ai/ha, scale 0-100): 100; Plant response rating, Bermudagrass (bermudagrass; [5]): 100; Ducksalad plant response rating (ducksalad; 62 g ai/ha, scale 0 to 100): 25; Ducksalad plant response rating (ducksalad; [2]): 85; Ducksalad plant response rating (ducksalad; [3]): 85; Plant response rating, Ducksalad (ducksalad; [4]): 85
CCn1nc(C(C)(C)C)cc1C(=O)Nc1cc(C(=O)N2CCCC2)ccc1F [Compound 242] | 75 | 85 | 85 | 0 | 65 | 75 | 0 | 35 | 100 | 100 | 100 | 65 | 100 | 100 | 100 | 100 | 85 | 90 | 90 | 0 | Sedge, Umbrella plant response rating [1, 7]: 45; Plant response rating, Cocklebur (cocklebur; [8]): 0; Cocklebur plant response rating (cocklebur; [9]): 50; Plant response rating, Goosegrass (goosegrass; [8]): 100; Plant response rating, Johnsongrass (johnsongrass; [8]): 95; Plant response rating, Velvetleaf (velvetleaf; 250 g ai/ha, scale 0-100): 100; Rice plant response rating (rice; [7]): 50; Plant response rating, Corn (corn; [8]): 0; Plant response rating, Corn (corn; 250 g ai/ha, scale 0-100): 20; Plant response rating, Corn (corn; [5]): 25; Plant response rating, Bermudagrass (bermudagrass; [6]): 95; Plant response rating, Bermudagrass (bermudagrass; [8]): 100; Plant response rating, Bermudagrass (bermudagrass; 250 g ai/ha, scale 0-100): 100; Bermudagrass plant response rating (bermudagrass; [9]): 100; Ducksalad plant response rating (ducksalad; [7]): 65; Ducksalad plant response rating (ducksalad; [2]): 95; Ducksalad plant response rating (ducksalad; [3]): 95; Plant response rating, Ducksalad (ducksalad; [4]): 95
